Source: patent publication US9221786B2, “2-fluorophenyl propionic acid derivatives” (LTT BIO-PHARMA CO., LTD., priority 2011, dated 2015)

Tests used:
[1] = target: T1, COX-2 (Homo sapiens, UniProt P35354); assay: Human whole blood assay, in vitro COX-2 assay (LPS-stimulated, PGE2 by EIA); assay type: cell-based; details: for selective inhibitory action on COX-2 activity: compared with loxoprofen (1), Table 12; for COX Selectivity COX-1/COX-2: ratio of IC50 COX-1 / IC50 COX-2, human whole blood
T1 construct: incubated at 37° C. for 24 hours to induce COX-2; from tissue; host or cells: heparinised human whole blood from healthy donors, stimulated with LPS
T1 sequence (P35354 18-604): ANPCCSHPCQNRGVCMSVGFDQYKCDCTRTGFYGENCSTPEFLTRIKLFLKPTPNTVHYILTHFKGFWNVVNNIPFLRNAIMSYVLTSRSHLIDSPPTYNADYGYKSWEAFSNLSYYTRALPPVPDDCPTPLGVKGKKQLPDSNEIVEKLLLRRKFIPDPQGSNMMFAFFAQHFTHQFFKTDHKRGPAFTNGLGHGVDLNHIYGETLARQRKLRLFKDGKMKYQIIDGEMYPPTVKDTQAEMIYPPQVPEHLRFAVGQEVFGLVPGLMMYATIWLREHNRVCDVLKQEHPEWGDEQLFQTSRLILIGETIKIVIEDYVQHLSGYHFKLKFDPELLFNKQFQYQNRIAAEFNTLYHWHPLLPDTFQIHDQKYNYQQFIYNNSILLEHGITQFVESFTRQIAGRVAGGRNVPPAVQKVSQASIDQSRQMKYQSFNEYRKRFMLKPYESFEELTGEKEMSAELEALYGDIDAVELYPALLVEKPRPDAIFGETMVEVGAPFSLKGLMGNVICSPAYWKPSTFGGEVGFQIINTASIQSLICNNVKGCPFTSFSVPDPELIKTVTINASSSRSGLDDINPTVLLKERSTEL
Protocol: Human Whole Blood Assay (In Vitro)
This test was carried out according to the method described in Inflamm. Res., 45: 68-74 (1996).
As blood donors, persons who were healthy on the day of collecting and had not taken NSAIDs for at least a week or more were selected.
Blood was collected in test tubes treated with heparin (Venoject II blood collection tubes, produced by TERUMO CORPORATION). To the test tubes, inflammatory stimulant lipopolysaccharide (LPS) [Sigma-Aldrich Japan Inc., #L2880 from E. coli 055:B5; diluted with phosphate buffered saline (PBS) at a final concentration of 100 μg/mL] was added. Aliquots of 500 μL were dispensed in the tubes, and 2 μL of a solution of a test compound (final concentration: 0.1 μM to 1000 μM) in a suitable solvent (DMSO or MilliQ water) was added to the tubes and incubated at 37° C. for 24 hours to induce COX-2.
After the incubation, the sample was centrifuged at 12,000×g for 5 minutes to separate blood serum. To remove protein from blood, 100 μL of obtained blood serum was added to 400 μL of ethanol, and the mixture was centrifuged again at 12,000×g for 5 minutes. PGE2 in the supernatant was quantitatively determined using an enzyme immunoassay (EIA) kit [Cayman (Ann, Arbor, Mich., USA) #514040] according to the attached protocol.

[2] = test system: Male Wister rats; assay: Gastric ulceration after oral administration (lesion index); assay type: in vivo, rat; details: rats fasted 18 hours, stomach excised after 8 hours, FIG. 1, versus loxoprofen (1)
Protocol: This test was carried out according to the method described in Biochem. Pharmacol., 67; 575-85 (2004).
Male Wister rats (weight: 180 to 200 g) were fasted for 18 hours, and a test compound was orally administered to the rats. After 8 hours, the stomach was excised and the area of ulcers found in the stomach was measured. The total area of all ulcers was represented as the lesion index.

[3] = test system: Male Wister rats; assay: Effect on carrageenin-induced edema; assay type: in vivo, rat; details: oral, 1 hour before carrageenin, 3 and 6 hours, FIG. 2
Protocol: B: Effect on Carrageenin-Induced Edema
This test was carried out according to the method described in Br. J. Pharmacol., 151; 285-91 (2007).
Male Wister rats (weight: 180 to 200 g) were fasted for 18 hours, and a test compound was orally administered to the rats. After 1 hour, 100 μL of 1% carrageenin (dissolved in physiological saline) was subcutaneously injected into the left footpad to induce edema.
Before carrageenin administration, and three hours and six hours after carrageenin administration, the leg volume was measured using a plethysmometer.
The edema inhibition rate is calculated on the basis of the following equation. Inhibition rate(%)=100−(edema volume when a compound was administrated/edema volume when a vehicle was administrated)×100.

[4] = earlier work of the inventors, Patent Literature 1; cited from earlier work
[5] = compared with loxoprofen; earlier work, Patent Literature 1; cited from earlier work

Row | SMILES | selective inhibitory action on COX-2 activity [1] | COX Selectivity COX-1/COX-2 [1] | gastric ulceration / gastric damage [2] | anti-inflammatory effect (edema inhibition) [3] | ulceration action [4] | anti-inflammatory effect [5]
1 | CC(C(=O)O)c1ccc(OC2CCCC2)cc1F (racemic) [Compound 14, 2-[4-(cyclopentyloxy)-2-fluorophenyl]-propionic acid] | weaker selective inhibitory action on COX-2 activity than loxoprofen (1) | 0.1 | gastric ulceration was significantly reduced | excellent anti-inflammatory effect |  | 
2 | CC(C(=O)O)c1ccc(Cc2ccoc2)cc1F (racemic) [Compound 22a, 2-[2-fluoro-4-(furan-3-ylmethyl)-phenyl]propionic acid] |  | 7.6 | significantly reducing gastric damage | same level of anti-inflammatory effect as loxoprofen (1) |  | 
3 | CC(C(=O)O)c1ccc(CC2CCCC2=O)cc1 (stereo not drawn) [Compound 1, Loxoprofen, reference compound] |  | 2.3 |  |  |  | 
4 | CC(C(=O)O)c1ccc(CC2CCCC2=O)cc1F (stereo not drawn) [Compound 2, 2-fluoroloxoprofen] |  | 1.7 |  |  | low ulceration action | same anti-inflammatory effect as loxoprofen
5 | CC(C(=O)O)c1ccc(NC2CCCC2)cc1F (stereo not drawn) [Compound 11a, 2-[4-(cyclopentylamino)-2-fluoro-phenyl]propionic acid] | weaker selective inhibitory action on COX-2 activity than loxoprofen (1) | 0.7 | gastric ulceration was significantly reduced | excellent anti-inflammatory effect |  | 
6 | CC(C(=O)O)c1ccc(Cc2ccco2)cc1F (stereo not drawn) [Compound 21a, 2-[2-fluoro-4-(furan-2-ylmethyl)-phenyl]propionic acid] |  | 5.3 | significantly reducing gastric damage | same level of anti-inflammatory effect as loxoprofen (1) |  | 
